# Data: PubChem BioAssay (NCI)
#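 Step 1: Grow cells in 96-well plates. Step 2: Expose to compound for 48 hours at 5 concentrations. Step 3: Interpolate endpoints linearly; if unreached, use highest concentration. Here, GI50 denotes the concentration required for 50% inhibition of growth. TGI: concentration producing complete growth inhibition.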
# Tested on: MDA-MB-468 breast
# Experiment: NCI-60 cell line screen, 48 h
SMILES,GI50,TGI
O=C(NCc1ccco1)C1CCN(S(=O)(=O)c2ccc(Cl)cc2)CC1,46 µM,> 100 µM
COc1c(B(O)O)cccc1-c1nc2ccc3[nH]ncc3c2c2c1CCCC2,1.69 µM,4.94 µM
COc1ccc2c(CCCc3ccc(Cl)cc3Cl)c3[n+](cc2c1OC)CCc1cc2c(cc1-3)OCO2,0.195 µM,0.894 µM
OC(CN1CCCC2CCCCC21)c1cc2ccccc2c2ccccc12 (stereo unspecified),1.73 µM,3.62 µM
Cc1c(Cl)cccc1NC(=O)c1sc2nc3c(cc2c1N)C(=O)CCC3,0.0453 µM,71.7 µM
C(=C\c1ccncc1)/c1ccncc1,> 100 µM,> 100 µM
COC(=O)c1c2c(c(C)[n+]([O-])c1C)C(=O)C(NCc1ccc(F)cc1)=CC2=O,0.598 µM,2.15 µM
Cc1ccc(N=Nc2c(O)ccc3n[nH]nc23)cc1,4.14 µM,49 µM
CC(=O)O[C@@H]1C2=C(C)C3(CC3)[C@@](C)(O)C(=O)C2=C[C@@]1(C)CO,0.209 µM,0.591 µM
COc1cc2c3c(n([C@@H]4CCOC4)c(=O)c2cc1OC)-c1cc2c(cc1C3=O)OCO2,< 0.01 µM,0.0949 µM
COCCNCc1ccc(-c2cc3nccc(Oc4ccc(NC(=O)C5(C(=O)Nc6ccc(F)cc6)CC5)cc4F)c3s2)nc1,1.74 µM,3.41 µM
CC(C)c1[nH]nc2c(NCc3ccc(-c4ccccn4)cc3)nc(SCCN)nc12,0.00335 µM,0.0127 µM
Cc1nc2sc(C(=O)Nc3ccccc3)c(N)c2cc1C(O)c1ccccc1 (stereo unspecified),0.233 µM,> 65.3 µM
Oc1ccc(Cl)cc1Sc1cc(Cl)ccc1O,3.13 µM,9.12 µM
O=C(NNc1nc2cc(F)cc(F)c2n2cccc12)c1cnccn1,0.331 µM,2.89 µM
O=C(N/N=C/c1cc(Cl)ccc1O)c1ccccc1Nc1ccnc(C(F)(F)F)c1,0.265 µM,2.05 µM
COc1cccc(N2CCN(c3ncnc4cc[nH]c34)CC2)c1,0.215 µM,10.2 µM
CN(C)CC1C(=O)O[C@H]2[C@H]1CC/C(COC(=O)NCc1ccc(Cn3c(=O)sn(CCCI)c3=O)cc1)=C\CC[C@@]1(C)O[C@@H]21 (stereo partly specified),0.7 µM,1.6 µM
C[C@H]1COCCN1c1nc(-c2cnc(N)cc2C(F)F)nc(N2CCOCC2)n1,0.108 µM,0.732 µM
CN(C)c1cc2c(Nc3ccc4c(cnn4Cc4ccccc4)c3)ncnc2cn1,0.136 µM,1.16 µM
CSc1nnc(-c2cc3c([nH]c4ccccc43)c(-c3cccc(O)c3)n2)n1-c1ccc(C)cc1,3.7 µM,33.7 µM
COc1cc2c(NC3CCN(C(C)C)CC3)nc(C3CCCCC3)nc2cc1OCCCN1CCCC1,1.42 µM,3.17 µM
CC(C)(O)CCc1cccc(C(=O)c2cnn(-c3ccc(F)cc3)c2N)c1,13.2 µM,> 25 µM
